Experimental data as given in patent publication US20110218188A1, “SUBSTITUTED (PYRIDYL)-AZINYLAMINE DERIVATIVES AS FUNGICIDES” (priority 2008, published 2011).

Test: Measurement of logP values by HPLC on reversed phase columns (EEC directive 79/831 Annex V.A8)
Format: physicochemical
Settings: for logP: pH 2.7

Row | logP | logP [b] (pH 2.3) | Compound
1 | 4.47 |  | C#CC(C)ON=C(C)c1cc(-c2ncnc(Nc3cccc(Cl)c3)n2)ccn1 (mixture of isomers) [B30]
2 | 4.7 |  | CCON=C(C)c1cc(-c2ncnc(Nc3cccc(Cl)c3)n2)ccn1 (mixture of isomers) [B31]
3 | 1.99 |  | CC(=NOCCN(C)C)c1cc(-c2ncnc(Nc3cccc(Cl)c3)n2)ccn1 (mixture of isomers) [B32]
4 | 5.16 |  | CCCC#CCON=C(C)c1cc(-c2ncnc(Nc3cccc(Cl)c3)n2)ccn1 (mixture of isomers) [B35]
5 | 6.02 |  | CC(=NOCc1c(Cl)cccc1Cl)c1cc(-c2ncnc(Nc3cccc(Cl)c3)n2)ccn1 (mixture of isomers) [B39]
6 | 4.87 |  | C#CC(C)ON=C(CC)c1cc(-c2ncnc(Nc3cccc(Cl)c3)n2)ccn1 (mixture of isomers) [B42]
7 | 5.63 |  | CC(=NOCC(C)C)c1cc(-c2ncnc(Nc3cccc(Cl)c3)n2)ccn1 (mixture of isomers) [B44]
8 | 6.39 |  | CCC(=NOC1CCCC1)c1cc(-c2ncnc(Nc3cccc(Cl)c3)n2)ccn1 (mixture of isomers) [B47]
9 | 2.06 |  | CCC(=NOCCN(C)C)c1cc(-c2ncnc(Nc3cccc(Cl)c3)n2)ccn1 (mixture of isomers) [B49]
10 | 5.18 |  | CC(=NOCc1ccccc1)c1cc(-c2ncnc(Nc3cccc(Cl)c3)n2)ccn1 (mixture of isomers) [B50]
11 | 4.91 |  | CC#CCON=C(CC)c1cc(-c2ncnc(Nc3cccc(Cl)c3)n2)ccn1 (mixture of isomers) [B53]
12 | 5.39 |  | CCC(=NOCC(F)(F)F)c1cc(-c2ncnc(Nc3cccc(Cl)c3)n2)ccn1 (mixture of isomers) [B58]
13 | 4.96 |  | COc1ccc(CON=C(C)c2cc(-c3ncnc(Nc4cccc(Cl)c4)n3)ccn2)cc1 (mixture of isomers) [B60]
14 | 6.19 |  | CCC(=NOCC(C)C)c1cc(-c2ncnc(Nc3cccc(Cl)c3)n2)ccn1 (mixture of isomers) [B65]
15 | 5.46 |  | CCC(=NOCc1ccc(OC)cc1)c1cc(-c2ncnc(Nc3cccc(Cl)c3)n2)ccn1 (mixture of isomers) [B68]
16 | 6.53 |  | CCC(=NOCc1c(Cl)cccc1Cl)c1cc(-c2ncnc(Nc3cccc(Cl)c3)n2)ccn1 (mixture of isomers) [B69]
17 | 6.22 |  | CCC(=NOCc1ccc(Cl)cc1)c1cc(-c2ncnc(Nc3cccc(Cl)c3)n2)ccn1 (mixture of isomers) [B70]
18 | 5.65 |  | CCC(=NOCc1ccccc1)c1cc(-c2ncnc(Nc3cccc(Cl)c3)n2)ccn1 (mixture of isomers) [B72]
19 | 4.58 |  | CC(=NOCC(F)(F)F)c1cc(-c2ncnc(Nc3cccc(Cl)c3)n2)ccn1 (mixture of isomers) [B73]
20 | 6.59 |  | CCC(=NOC(C1CC1)C1CC1)c1cc(-c2ncnc(Nc3cccc(Cl)c3)n2)ccn1 (mixture of isomers) [B79]
21 | 4.73 |  | C#CCON=C(CC)c1cc(-c2ncnc(Nc3cccc(Cl)c3)n2)ccn1 (mixture of isomers) [B80]

Row | logP | logP [b] (pH 2.3) | Compound
22 | 6.24 |  | CCC(=NOC(C)C1CC1)c1cc(-c2ncnc(Nc3cccc(Cl)c3)n2)ccn1 (mixture of isomers) [B84]
23 | 4.7 |  | C=CCON=C(C)c1cc(-c2ncnc(Nc3cccc(Cl)c3)n2)ccn1 (mixture of isomers) [Example B29]
24 | 4.94 |  | CC(=NOCC1CC1)c1cc(-c2ncnc(Nc3cccc(Cl)c3)n2)ccn1 (mixture of isomers) [Example B34]
25 | 4.41 |  | CC#CCON=C(C)c1cc(-c2ncnc(Nc3cccc(Cl)c3)n2)ccn1 (mixture of isomers) [Example B36]
26 | 3.98 |  | C#CCON=C(C)c1cc(-c2ncnc(Nc3cccc(Cl)c3)n2)ccn1 (mixture of isomers) [Example B37]
27 | 5.79 |  | CC(=NOC1CCCC1)c1cc(-c2ncnc(Nc3cccc(Cl)c3)n2)ccn1 (mixture of isomers) [Example B38]
28 | 5.1 |  | CCON=C(CC)c1cc(-c2ncnc(Nc3cccc(Cl)c3)n2)ccn1 (mixture of isomers) [Example B40]
29 | 5.14 |  | C=CCON=C(CC)c1cc(-c2ncnc(Nc3cccc(Cl)c3)n2)ccn1 (mixture of isomers) [Example B41]
30 | 5.13 |  | CCCON=C(C)c1cc(-c2ncnc(Nc3cccc(Cl)c3)n2)ccn1 (mixture of isomers) [Example B43]
31 | 5.81 |  | CCCC#CCON=C(CC)c1cc(-c2ncnc(Nc3cccc(Cl)c3)n2)ccn1 (mixture of isomers) [Example B46]
32 | 5.64 |  | CC(=NOC(C1CC1)C1CC1)c1cc(-c2ncnc(Nc3cccc(Cl)c3)n2)ccn1 (mixture of isomers) [Example B48]
33 | 5.49 |  | CCC(=NOCC1CC1)c1cc(-c2ncnc(Nc3cccc(Cl)c3)n2)ccn1 (mixture of isomers) [Example B54]
34 | 3.24 |  | CCC(=NO)c1cc(-c2ncnc(Nc3cccc(Cl)c3)n2)ccn1 (mixture of isomers) [Example B64]
35 | 2.8 |  | CC(=NO)c1cc(-c2ncnc(Nc3cccc(Cl)c3)n2)ccn1 (mixture of isomers) [Example B74]
36 | 4.81 |  | CCC(=NOC)c1cc(-c2ncnc(Nc3cccc(Cl)c3)n2)ccn1 (mixture of isomers) [Example B85]
37 | 3.21 |  | COCC(C)NC(=O)c1cc(-c2ncnc(Nc3cccc(Cl)c3)n2)ccn1 (stereo not drawn) [B51]
38 | 3.39 |  | COC[C@H](C)NC(=O)c1cc(-c2ncnc(Nc3cccc(Cl)c3)n2)ccn1 [B52]
39 | 4.46 |  | O=C(NC1CCCCC1)c1cc(-c2ncnc(Nc3cccc(Cl)c3)n2)ccn1 [B56]
40 | 2.84 |  | COCCNC(=O)c1cc(-c2ncnc(Nc3cccc(Cl)c3)n2)ccn1 [B59]
41 | 4.3 |  | CC(C)CCNC(=O)c1cc(-c2ncnc(Nc3cccc(Cl)c3)n2)ccn1 [B61]
42 | 4.3 |  | CC(C)C(C)NC(=O)c1cc(-c2ncnc(Nc3cccc(Cl)c3)n2)ccn1 (stereo not drawn) [B62]

Row | logP | logP [b] (pH 2.3) | Compound
43 | 4.22 |  | CCC(CC)NC(=O)c1cc(-c2ncnc(Nc3cccc(Cl)c3)n2)ccn1 [B63]
44 | 1.72 |  | CC(CN(C)C)NC(=O)c1cc(-c2ncnc(Nc3cccc(Cl)c3)n2)ccn1 (stereo not drawn) [B66]
45 | 4.35 |  | CCCCCNC(=O)c1cc(-c2ncnc(Nc3cccc(Cl)c3)n2)ccn1 [B67]
46 | 4.03 |  | O=C(NC1CCCC1)c1cc(-c2ncnc(Nc3cccc(Cl)c3)n2)ccn1 [B71]
47 | 2.86 |  | COC(=O)NN=C(C)c1cc(-c2ncnc(Nc3cccc(Cl)c3)n2)ccn1 [B83]
48 | 3.39 |  | COCC(COC)NC(=O)c1cc(-c2ncnc(Nc3cccc(Cl)c3)n2)ccn1 [B86]
49 | 3.15 |  | COCCCNC(=O)c1cc(-c2ncnc(Nc3cccc(Cl)c3)n2)ccn1 [B88]
50 | 3.8 |  | CCC(COC)NC(=O)c1cc(-c2ncnc(Nc3cccc(Cl)c3)n2)ccn1 (stereo not drawn) [B89]
51 | 5.46 |  | CC(=NNc1ncc(C(F)(F)F)cc1Cl)c1cc(-c2ncnc(Nc3cccc(Cl)c3)n2)ccn1 [B90]
52 | 3.17 |  | CCNC(=O)c1cc(-c2ncnc(Nc3cccc(Cl)c3)n2)ccn1 [B92]
53 | 2.73 |  | O=C(NCCCCN1CCCC1=O)c1cc(-c2ncnc(Nc3cccc(Cl)c3)n2)ccn1 [B96]
54 | 4.39 |  | CC(C)(C)NC(=O)c1cc(-c2ncnc(Nc3cccc(Cl)c3)n2)ccn1 [B98]
55 | 3.73 |  | O=C(NCC1CC1)c1cc(-c2ncnc(Nc3cccc(Cl)c3)n2)ccn1 [B99]
56 | 2.63 |  | O=C(NCCCN1CCCC1=O)c1cc(-c2ncnc(Nc3cccc(Cl)c3)n2)ccn1 [B100]
57 | 2.66 |  | O=C(NC1CCS(=O)(=O)C1)c1cc(-c2ncnc(Nc3cccc(Cl)c3)n2)ccn1 (stereo not drawn) [B101]
58 | 3.62 |  | CCCNC(=O)c1cc(-c2ncnc(Nc3cccc(Cl)c3)n2)ccn1 [B103]
59 | 3.8 |  | CCCC(=O)O/N=C(/N)c1cc(-c2ncnc(Nc3cccc(Cl)c3)n2)ccn1 [B106]
60 | 3.69 |  | CC(C)C(=O)O/N=C(/N)c1cc(-c2ncnc(Nc3cccc(Cl)c3)n2)ccn1 [B107]
61 | 3.33 |  | CCC(=O)O/N=C(/N)c1cc(-c2ncnc(Nc3cccc(Cl)c3)n2)ccn1 [B108]
62 | 2.95 |  | CC(=O)O/N=C(/N)c1cc(-c2ncnc(Nc3cccc(Cl)c3)n2)ccn1 [B109]
63 | 2.6 |  | O=C(NC1COC1)c1cc(-c2ncnc(Nc3cccc(Cl)c3)n2)ccn1 [B112]

Row | logP | logP [b] (pH 2.3) | Compound
64 | 3.67 |  | O=C(NCC(F)(F)F)c1cc(-c2ncnc(Nc3cccc(Cl)c3)n2)ccn1 [B117]
65 | 3.55 |  | O=C(c1cc(-c2ncnc(Nc3cccc(Cl)c3)n2)ccn1)N1CCC(C(F)(F)F)CC1 [B120]
66 | 3.73 |  | O=C(NCCC(F)(F)F)c1cc(-c2ncnc(Nc3cccc(Cl)c3)n2)ccn1 [B121]
67 | 1.82 |  | CCN1CCCC(NC(=O)c2cc(-c3ncnc(Nc4cccc(Cl)c4)n3)ccn2)C1 (stereo not drawn) [B122]
68 | 2.92 |  | CC1CN(C(=O)c2cc(-c3ncnc(Nc4cccc(Cl)c4)n3)ccn2)CC(C)O1 (stereo not drawn) [B154]
69 | 2.15 |  | O=C1CN(C(=O)c2cc(-c3ncnc(Nc4cccc(Cl)c4)n3)ccn2)CN1 [B168]
70 | 6.69 |  | CCCCCCN(CCCCCC)C(=O)c1cc(-c2ncnc(Nc3cccc(Cl)c3)n2)ccn1 [B174]
71 | 4.75 |  | CCCCN(CCCC)C(=O)c1cc(-c2ncnc(Nc3cccc(Cl)c3)n2)ccn1 [B175]
72 | 2.98 |  | O=C(c1cc(-c2ncnc(Nc3cccc(Cl)c3)n2)ccn1)N1CCSCC1 [B176]
73 | 2.07 |  | O=C(c1cc(-c2ncnc(Nc3cccc(Cl)c3)n2)ccn1)N1CCC(O)C1 (stereo not drawn) [B177]
74 | 2.26 |  | O=CNCCCNC(=O)c1cc(-c2ncnc(Nc3cccc(Cl)c3)n2)ccn1 [B178]
75 |  | 3.13[b] | CCCN(CCC#N)C(=O)c1cc(-c2ncnc(Nc3cccc(Cl)c3)n2)ccn1 [B182]
76 | 3 |  | O=C(c1cc(-c2ncnc(Nc3ccc(F)c(Cl)c3)n2)ccn1)N1CCCC1 [B190]
77 | 3.48 |  | COCC(C)NC(=O)c1cc(-c2ncnc(Nc3ccc(F)c(Cl)c3)n2)ccn1 (stereo not drawn) [B191]
78 | 3.08 |  | COCCNC(=O)c1cc(-c2ncnc(Nc3ccc(F)c(Cl)c3)n2)ccn1 [B193]
79 | 3.73 |  | CC(C)NC(=O)c1cc(-c2ncnc(Nc3ccc(F)c(Cl)c3)n2)ccn1 [B196]
80 | 3.83 |  | O=C(NCC1CC1)c1cc(-c2ncnc(Nc3ccc(F)c(Cl)c3)n2)ccn1 [B198]
81 | 3.94 |  | O=C(NC1CCC1)c1cc(-c2ncnc(Nc3ccc(F)c(Cl)c3)n2)ccn1 [B199]
